The source of these data is US20090054376A1, “BENZOFURAN DERIVATIVES WITH THERAPEUTIC ACTIVITIES” (Pharmos Corporation, priority 2005, published 2009).

SMILES strings stand for the structures. Counter-ions that a name gives are not always drawn. Like-named read-outs stand apart in the source and are kept apart here. Bounds are passed on as bounds.

Assay [1] deals with carrageenan induced inflammatory pain and paw edema. Kind of assay: Inflammatory pain and paw edema induced by carrageenan. In kind it is in vivo, Male Sprague Dawley rats. Particulars: for inhibition in vivo at 10 mg/kg / inhibition in vivo at 20 mg/kg: Rattus norvegicus, ip; for inhibition in vivo at 10 mg/kg / Percent Inhibition of Inflammatory Pain Responses, Edema / Percent Inhibition of Inflammatory Pain Responses, ΔForce / Percent Inhibition of Inflammatory Pain Responses, ΔLT: 10 mg/kg i.p.; for inhibition in vivo at 20 mg/kg: 20 mg/kg i.p. (two asterisks). The procedure:
Male Sprague Dawley rats (average body weight 200 g, Harlan, Israel) were transiently sedated by placement on dry ice for the duration of the injections. Rats were injected subcutaneously, in the subplantar region of one (right) paw with 0.1 ml of 2% w/v λ Carrageenan in sterile saline. […] Test compounds were, unless otherwise stated, administered i.p. at initial single dose of 3, 10 or 20 mg/kg, and volume dose of 5 ml/kg, immediately after the carrageenan injection. Selected compounds were also tested p.o. following oral gavage. Vehicle and celecoxib treated animals were used as controls. Each treatment group comprised at least seven animals.
Before induction of inflammatory pain and three hours after injection, the animals reactions to pain stimuli were tested in two systems. The first stimulus was thermal and assessed by the Plantar Test according to Hargreaves, using Ugo Basile Model 7370. The scale was set to an intensity of 50 arbitrary units. The latency time till the animal lift a paw as a reaction to the thermal stimulus was recorded for both the inflamed and non-inflamed hind paws. The second stimulus was mechanical (tactile) and assessed using a Dynamic Plantar Sesthesiomether (Ugo Basile Model 73400-002). […] Finally, the impact on paw edema was assessed. Paw thickness was measured using a dial thickness gauge (Spring-dial, constant low pressure gauge, Mitutoyo, TG/L-1, 0.01 mm) and paw volume was measured using a plethysmometer (model #7150, Ugo Basile, Italy). At the end of the study, animals were euthanized.
The results are measured as the differences between the two hind paws at time 0 and 3 hours both as ALT, for the latency time in the thermal part of the study, and as ΔForce, for the mechanical part of the study. The paw volume is expressed as percent from vehicle treated animals. Results are expressed as mean±SEM for each treatment group and the differences among those groups are analyzed by analysis of variance (ANOVA) followed by post-hoc Tukey's test.
Results refer to i.p. treatment with 10 mg/kg. Results marked with one asterisk refer to a dose 3 mg/kg, whereas two asterisks refer to 20 mg/kg. Celecoxib is included as reference.

Assay [2] has as its system visceral pain writhing responses. Kind of assay: Visceral pain, acetic acid induced writhing responses. The class given is in vivo, Male ICR mice. Particulars: for inhibition in vivo at 2 mg/kg: Mus musculus, iv, read-out: Percent Inhibition of Visceral Pain Writhing Responses; for inhibition in vivo at 2 mg/kg / Percent Inhibition of Visceral Pain Writhing Responses: single dose 2 mg/kg i.v., compared to untreated group. The procedure: Male ICR mice (average body weight 25 g, Harlan, Israel) were pretreated by i.v. injection at volume dose of 5 ml/kg of vehicle, control and test compounds at various doses. Other routes of administration were tested for selected compounds including i.m. or s.c. injections at volume dose of 2.5 ml/kg and p.o. gavage at volume dose of 5 ml/kg. Compounds were dissolved in CREMOPHOR®:Ethanol and diluted 1:20 in saline prior to injection or gavage. Compounds administered i.v. were injected fifteen minutes before pain induction, whereas compounds administered i.m., s.c. or p.o. were supplied thirty minutes before pain induction, unless otherwise indicated. Each treatment group, except for controls comprising at least 30 animals, was composed of at least 6 animals. Fifteen or thirty minutes after drug administration, depending on the route of administration, the mice were injected i.p. with 10 ml/kg of 0.6% acetic acid and the number of visceral pain related behaviors (writhing movements globally defined as WR, i.e. stretching, contractions of the abdomen accompanied by an elongation of the body and extension of the hind limbs) was counted over a period of 5 minutes, starting 5 minutes after the acetic acid administration. These visceral pain related behaviors were globally defined as writhing responses (WR). The results are expressed as mean number of writhing responses ±SEM. Data were analyzed using analysis of variance (ANOVA) followed by post-hoc Fisher test.

[3] abbreviates: 3 hours after carrageenan, reduction in paw swelling, read-out: Percent Inhibition of Inflammatory Pain Responses, Edema.
The mark [4] stands for this setting: 3 hours, mechanical stimulus, read-out: Percent Inhibition of Inflammatory Pain Responses, ΔForce.
Where [5] appears, read: 3 hours, thermal stimulus, read-out: Percent Inhibition of Inflammatory Pain Responses, ΔLT.
The mark [6] stands for this setting: 3 hours, reduction in paw swelling, read-out: Percent Inhibition of Inflammatory Pain Responses, Edema.
Setting [7] is: 3 hours after carrageenan, reduction in paw swelling.

In the case of `CCCCC(C)(C)c1cc(O)c2c(c1)OC1CCCCC21C` (stereo not shown) [Compound C6S-12, 3-(1,1-dimethylpentyl)-9a-methyl-5a,6,7,8,9,9a-hexahydro-dibenzofuran-1-ol], the inhibition in vivo at 10 mg/kg in assay [1] (setting [3]) was 53%; in assay [1] (setting [4]), 37%; in assay [1] (setting [5]) it was 33%.
As for `CCCCCCC(C)(C)c1cc(OCC(=O)O)c2c(c1)OC1CCCCC21` (stereo not shown) [Compound C6S-18, [3-(1,1-dimethylheptyl)-5a,6,7,8,9,9a-hexahydro-dibenzofuran-1-yloxy]-acetic acid], the inhibition in vivo at 20 mg/kg in assay [1] (setting [4]) was determined as 31%; in assay [1] (setting [6]) it was 48%; in assay [1] (setting [5]) it was 49%.
As to `CCCCCCC(C)(C)c1cc(O)c2c(c1)OC1(C)C(C)CCC21` (stereo not drawn) [Compound C5S-4, 6-(1,1-dimethylheptyl)-1,8a-dimethyl-2,3,3a,8a-tetrahydro-1H-8-oxa-cyclo-penta[α]inden-4-ol], the “Percent Inhibition of Inflammatory Pain Responses, Edema” value (“Percent Inhibition … Edema” for short) in assay [1] (setting [7]) came out at 49%. The “Percent Inhibition of Inflammatory Pain Responses, ΔForce” value (shortened to “Percent Inhibition … ΔForce”) in assay [1] (3 hours, mechanical stimulus) is recorded as 88%. Further, the “Percent Inhibition of Inflammatory Pain Responses, ΔLT” value (from here on “Percent Inhibition … ΔLT”) in assay [1] (3 hours, thermal stimulus) is reported as 100%.
Consider `CCCCCCC(C)(C)c1cc(O)c2c(c1)OC1C(N)CCCCC21` (stereo not drawn) [Compound C7S-32, 9-Amino-2-(1,1-dimethylheptyl)-5,6,7,8,9,9a-hexahydro-4bH-10-oxa-benzo[α]azulen-4-ol], for which the “inhibition of pain (writhing) response” value in assay [2] (4 mg/kg i.v.) is 38%; in assay [2] (10 mg/kg i.v.), 100%.
As to `CCCCCCC(C)(C)c1cc(O)c2c(c1)OC1C(N)CCCCC21` (stereo not drawn) [C7S-32 HCl salt, 9-Amino-2-(1,1-dimethylheptyl)-5,6,7,8,9,9a-hexahydro-4bH-10-oxa-benzo[α]azulen-4-ol], the results for the “inhibition of pain (writhing) response” value in assay [2] (4 mg/kg i.v.) and in assay [2] (10 mg/kg i.v.) were 50% and 84%, respectively.
Take `COC(=O)c1cc(O)c2c(c1)OC1CCCCC21` (stereo not shown) [Compound C6S-21, 1-hydroxy-5a,6,7,8,9,9a-hexahydro-dibenzofuran-3-carboxylic acid methyl ester]: the values for the inhibition in vivo at 20 mg/kg in assay [1] (setting [6]) and in assay [1] (setting [5]) were 38% and 44%, respectively.
On to `Cc1ccc(-c2cc(C(F)(F)F)nn2-c2ccc(S(N)(=O)=O)cc2)cc1` [Celecoxib, reference compound], for which, in assay [1] (3 hours, mechanical stimulus), the “Percent Inhibition … ΔForce” value is 2%. Further, the values for the inhibition in vivo at 10 mg/kg in assay [1] (setting [3]), in assay [1] (setting [4]) and in assay [1] (setting [5]) were 45%, 2% and 58%, respectively. Besides, the “activity in visceral pain model” value in assay [2] (doses up to 10 mg/kg) was “inactive”.
Regarding `CCCCC(C)(C)c1cc(OCC(O)CO)c2c(c1)OC1CCCCC21` (stereo not shown) [Compound C6S-10, 3-[3-(1,1-Dimethylpentyl)-5a,6,7,8,9,9a-hexahydro-dibenzofuran-1-yloxy]-propane-1,2-diol], the inhibition in vivo at 20 mg/kg in assay [1] (setting [4]) turned out to be 24%; in assay [1] (setting [6]), 37%; in assay [1] (setting [5]), 50%. The inhibition in vivo at 2 mg/kg in assay [2] is 28%.
In the case of `CCCCC(C)(C)c1cc(O)c2c(c1)OC1CCCCCC21` (stereo not drawn) [Compound C7S-3, 2-(1,1-dimethylpentyl)-5,6,7,8,9,9a-hexahydro-4bH-10-oxa-benzo[α]azulen-4-ol], the “Percent Inhibition … Edema” value in assay [1] (setting [7]) amounted to 43%. Besides, in assay [1] (3 hours, mechanical stimulus), the “Percent Inhibition … ΔForce” value is reported as 35%. The “Percent Inhibition … ΔLT” value in assay [1] (3 hours, thermal stimulus) stood at 46%.
As for `CCCCCCC(C)(C)c1cc(O)c2c3c(oc2c1)CCCC3` [Compound C6M-1, 3-(1,1-Dimethylheptyl)-6,7,8,9-tetrahydro-dibenzo-furan-1-ol], the inhibition in vivo at 10 mg/kg in assay [1] (setting [3]) stood at 31%; in assay [1] (setting [4]), 12%; in assay [1] (setting [5]), 12%.
Consider `CCCCCCC(C)(C)c1cc2c(c(OP(=O)(O)O)c1)C1CCCCC(O)C1O2` (stereo not drawn) [Compound C7S-13, Phosphoric acid mono-[2-(1,1-dimethylheptyl)-9-hydroxy-5,6,7,8,9,9a-hexahydro-4bH-10-oxa-benzo[α]azulen-4-yl]ester], for which the “Percent Inhibition … Edema” value in assay [1] (setting [7]) is given as 34%. The “Percent Inhibition … ΔForce” value in assay [1] (3 hours, mechanical stimulus) was found to be 6%. Also, in assay [1] (3 hours, thermal stimulus), the “Percent Inhibition … ΔLT” value is reported as 0%. The “Percent Inhibition of Visceral Pain Writhing Responses” value in assay [2] is listed as 72%.
As to `CCCCCCC(C)(C)c1cc(OC(=O)C=CC(=O)O)c2c(c1)OC1(C)C(C)CCC21` (stereo not drawn) [Compound C5S-5, But-2-enedioic acid mono-[6-(1,1-dimethylheptyl)-1,8a-dimethyl-2,3,3a,8a-tetrahydro-1H-8-oxa-cyclopenta[α]inden-4-yl]ester], the “Percent Inhibition of Visceral Pain Writhing Responses” value in assay [2] was 27%.
Regarding `CCCCCCC(C)(C)c1cc(OC(=O)CCNC)c2c(c1)OC1CC(C)(C)CCC21` (stereo not shown) [Compound C6S-39, 3-Methylamino-propionic acid 3-(1,1-dimethylheptyl)-7,7-dimethyl-5a,6,7,8,9,9a-hexahydro-dibenzofuran-1-yl ester], the “inhibition of writhing responses” value in assay [2] (0.02 mg/kg i.v., compared to vehicle) is listed as 38%. The “inhibition of pain response” value in assay [2] (0.08 mg/kg i.v.) is recorded as “totally inhibited pain response”. Further, the “fold more potent than morphine” value in assay [2] (IC50 in visceral pain, i.v.) is on record as 35 fold. In addition, in assay [2], the inhibition in vivo at 2 mg/kg was above 90%. Moreover, the “IC50 in visceral pain” value in assay [2] (i.v., estimated or calculated from dose range) is listed as 0.03 mg/kg.
On to `CCCCC(C)(C)c1cc2c(c(OP(=O)(O)O)c1)C1CCCCC1O2` (stereo not shown) [Compound C6S-16, Phosphoric acid mono-[3-(1,1-dimethylpentyl)-5a,6,7,8,9,9a-hexahydro-dibenzofuran-1-yl]ester], for which the inhibition in vivo at 20 mg/kg in assay [1] (setting [4]) was 6%; in assay [1] (setting [6]) it was 31%; in assay [1] (setting [5]) it was 69%.
